Marks after values point to notes of the source that are not given here.
Columns and labels:
[1] = DPPH radical scavenging activity; conditions: 10 minutes reaction, absorbance 517 nm; Table 7
Procedure: 4 mM of DPPH solution in ethanol was prepared and used after the absorbance was adjusted to 1.000±0.1. 0.2 mL of each sample was added to a test tube, 2.8 mL of DPPH solution was mixed and allowed to react for 10 minutes, and the absorbance was measured at 517 nm by using a microplate reader (M2, Molecular Device, Canada). L-ascorbic acid was used as a positive control. The DPPH radical scavenging activity was calculated from the following formula: DPPH radical scavenging activity (%)=[1−(A/B)]×100 • (A: absorbance of a group with addition of sample, B: absorbance of a group without addition of sample)

[2] = Oxidation stability of lipid by Rancimat method; conditions: fish oil containing 2% of the polyphenol composition, 100° C., Table 9; for IP (min) induction period: air 20 L/hr; for AI Antioxidative Index: relative to lipid without composition
Procedure: Oxidation stability of lipid was analyzed by using the Rancimat (743 Metrohm Co., Herisau, Switzerland) method. 2.5 g of fish oil [Sigma-Aldrich Co. (St. Louis. MO, USA)] containing 2% of the polyphenol composition was put into a reaction vessel, and air was put at 20 L/hr into lipid on an aluminum heating block controlled at 100° C. to oxidize lipid. The volatile oxidation products generated during this time were transferred to an absorption vessel containing 60 mL of distilled water, and the degree of anti-oxidation was determined through the induction period automatically calculated in accordance with the change of electrical conductivity. For comparison of antioxidative activity, the Antioxidative Index (AI) was calculated by using a lipid sample with no addition of the polyphenol composition as a control group from the following formula: Further, L-ascorbic acid was used as a positive control. Antioxidative Index (AI)=IG/IC (IG: […])

polyphenol oxidase (PPO) = assay: Polyphenol oxidase (PPO) inhibitory activity; format: biochemical; conditions: pH 6.5, 25° C., catechin substrate, absorbance 420 nm; Table 11
Procedure: 1.7 mL of 50 mM phosphate buffer (pH 6.5) and 0.2 mL of PPO (4,276 units/mg) were mixed, and 0.1 mL of each polyphenol composition was added, and the mixture was left in a constant temperature water bath controlled at 25° C. for 15 minutes, and 1 mL of 4 mM catechin solution was added thereto as a substrate, respectively. Then, a change in absorbance for 5 minutes at 420 nm was measured by using a microplate reader (M2, Molecular Device, Canada). The enzyme inhibitory activity was expressed as absorbance reduction (%) represented by the following formula: Inhibition of PPO activity (%)=[1−(A/B)]×100 • [A: absorbance of sample, B: absorbance of blank solution]

[3] = Trimethylamine (TMA) reducing effect, SPME-GC/MS; conditions: TMA 100 ppm standard aqueous solution; compositions T1-T6, 50 ppm of each polyphenol
Procedure: 30% concentration product of trimethylamine was purchased from Duksan Chemistry (Ansan, Republic of Korea) and used in the experiment. To determine the TMA-reducing effect, the standard reagent of 30% trimethylamine was diluted with distilled water to 100 ppm to prepare a standard aqueous solution. The prepared standard aqueous solution was used as a solvent to prepare a test polyphenol composition, and a trimethylamine-containing polyphenol composition sample was prepared and used for GC/MS analysis. The trimethylamine (TMA) component was determined from the polyphenol composition through the following method. […] The amount of TMA in the composition was calculated by comparing the peak area of 1.0 g of the sample and 1 g of 100 mg/L of TMA relative to each other and performing the comparative relative quantification of the contents of volatile aroma components in the sample. To determine the superiority of the combination of chlorogenic acid, caffeic acid, and quinic acid, the TMA reducing effect, which is known to be an effect of polyphenols, was evaluated. Specifically, the trimethylamine (TMA)-reducing effect was evaluated through the method of Experimental example 2 for each polyphenol composition prepared in Experimental example 1-2. […]

SMILES | DPPH (%) radical scavenging activity [1] | IP (min) induction period [2] | AI Antioxidative Index [2] | PPO (%) inhibition of PPO activity (polyphenol oxidase (PPO)) | Reduction (%) of trimethylamine (TMA) [3] [%]
O=C1O[C@H]([C@@H](O)CO)C(O)=C1O [(+) control, L-ascorbic acid, reference compound] | 81.07 ± 0.59^a % | 90.53 ± 1.37^c min | 1.22 ± 0.03^c | 22.86 ± 0.70^a % | 
O=C(O)[C@]1(O)C[C@@H](O)[C@@H](O)[C@H](O)C1 [Composition T3, Quinic acid] | 0.60 ± 1.04^e % | 77.23 ± 1.05^e min | 1.04 ± 0.01^e | 19.47 ± 0.75^c % | 57.66

Source: US12660840B2, “Composition containing polyphenol” (CJ CHEILJEDANG CORPORATION, priority 2019, dated 2026)
